# Results: publication PMC10064984, “Anti-cyclooxygenase, anti-glycation, and anti-skin aging effect of Dendrobium officinale flowers’ aqueous extract and its phytochemical validation in aging” (Frontiers in Immunology, 2023)
# Several values for one entry are separate records, joined by “and”; a condition that tells them apart may be missing. Identical values can stand only once. Like-named read-outs stand apart in the source and are kept apart here.
# Columns and labels:
# Assay type in all cases: biochemical
# [1] = ABTS·+ decolourisation capacity; settings: for ABTS scavenging rate: 0.5mM series, replicate wells, listed as T17
# Protocol: Fast colourimetric methods were slightly modified for the in vitro assessment of DPPH· scavenging ([19]), ABTS·+ decolourisation capacity ([20]), and total antioxidant capacity of FRAP ([21]). The stock solutions of derivatisation reagents were diluted as follows before measurement: DPPH was diluted with absolute ethanol until the absorbance was 0.8 ± 0.05 at λ = 517 nm. ABTS working solution was prepared with phosphate buffer (0.2 M, pH 7.4) to display absorbance of 0.8 ± 0.05 at λ = 729 nm, based on a previous study ([22]). The FRAP solution was prepared according to the instructions of the FRAP kit. Absorbances were measured using an automatic microplate reader (Molecular Group Ltd., USA), and all analyses were performed using 96-well plates. All measurements were performed in triplicate, and Trolox was used as a positive control.
# For ABTS·+ decolourisation capacity, 100 μl of ABTS working solution was mixed with 200 μl of sample solution, and the absorbance was recorded after 10 min at 729 nm. Phosphate buffer (0.2 M, pH 7.4) was used as a negative control.
# DPPH· and ABTS·+ radical scavenging activities of the tested sample were both calculated using the following formula:
# % inhibition = (A control − A sample)/A control × 100
# Where A control and A sample represent the absorbance of the control and test samples, respectively. The IC50 was calculated graphically from the dose-inhibition curves.
# DPPH· scavenging = settings: mean ± SD, n = 3
# [2] = Fluorescent AGEs formation in a BSA-fructose/glucose system; settings: mean ± SD, n = 3; read-out: BSA-glycation IC50
# Protocol: Glycated protein was prepared in vitro by incubating BSA in the presence of D-glucose (GLC) and D-fructose (FRC). The DOF extract and specific standards were dissolved in DMSO:water (1:4). […] The assay was performed in triplicate, and AG was used as a positive control. The percentage inhibition of fluorescent AGE formation was calculated using the following equation: […] Where IF sample is fluorescence intensity in the presence of samples and BSA, IF sample control is fluorescence intensity in the presence of samples without BSA, IF control is fluorescence intensity without samples, and IF blank control is fluorescence intensity without samples and BSA.
# COX-2 = target: T1, COX-2 (Homo sapiens, UniProt P35354); test: Anti-COX-2 assay (COX-2 Inhibitor Screening Kit)
# T1 construct: purchased Beyotime S0168
# T1 sequence (P35354 18-604): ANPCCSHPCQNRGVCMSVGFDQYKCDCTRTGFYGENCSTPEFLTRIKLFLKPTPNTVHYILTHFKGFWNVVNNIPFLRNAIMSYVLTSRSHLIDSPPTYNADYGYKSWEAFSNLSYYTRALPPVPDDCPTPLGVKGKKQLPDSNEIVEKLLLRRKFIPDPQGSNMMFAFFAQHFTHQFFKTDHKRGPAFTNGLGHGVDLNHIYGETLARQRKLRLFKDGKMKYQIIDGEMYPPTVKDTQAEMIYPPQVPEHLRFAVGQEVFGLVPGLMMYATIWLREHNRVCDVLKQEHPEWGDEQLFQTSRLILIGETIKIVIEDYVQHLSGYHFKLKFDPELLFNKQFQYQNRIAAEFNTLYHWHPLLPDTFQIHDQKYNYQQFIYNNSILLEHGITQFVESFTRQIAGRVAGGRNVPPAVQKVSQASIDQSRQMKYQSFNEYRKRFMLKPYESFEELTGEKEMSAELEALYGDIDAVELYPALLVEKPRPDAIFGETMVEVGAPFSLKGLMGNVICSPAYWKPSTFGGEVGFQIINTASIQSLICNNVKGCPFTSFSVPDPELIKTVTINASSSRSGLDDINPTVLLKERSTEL
# [3] = FRAP total antioxidant capacity; settings: lower part of sheet (compound series);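 also: colourimetric FRAP kit assay read as absorbance in 96-well plates, values as mM FeSO4 via standard curve, EC1 being sample concentration matching 1.0 mmol/L FeSO4, Trolox positive control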
compound,measurement,setting,value
"O=c1cc(-c2ccc(O)c(O)c2)oc2cc(O)c(C3OC(CO)C(O)C(O)C3O)c(O)c12 [compound 18, Luteolin-6-C-β-D-glucoside]",ABTS scavenging rate,[1]; concentration 7.8125 (unit not given),55.37% and 55.07% and 56.44%
same,ABTS scavenging rate,[1]; concentration 15.625 (unit not given),79.33% and 79.42% (2×)
same,ABTS scavenging rate,[1]; concentration 31.25 (unit not given),99.48% (2×) and 99.43%
same,ABTS scavenging rate,[1]; concentration 62.5 (unit not given),99.27% and 99.11% and 99.08%
same,ABTS scavenging rate,[1]; concentration 125 (unit not given),99.06% and 98.78% and 98.90%
same,ABTS scavenging rate,[1]; concentration 250 (unit not given),98.95% and 99.14% and 99.11%
same,ABTS scavenging rate,[1]; concentration 500 (unit not given),99.30% and 99.22% and 99.17%
same,IC50,"[1]; mean ± SD, n = 3",7.1 ± 0.1 µM
same,IC50,DPPH· scavenging,102 ± 6.2 µM
same,IC50,[2],317 ± 15.6 µM
same,COX-2 inhibition (in words),COX-2,great COX-2 inhibition
same,inhibition at 3.125 µM,"COX-2; 3.125 μM, single replicates",16.9%
same,COX-2 inhibition,"COX-2; 3.125 μM, single replicates, listed as T17, 3.125 µM",26.59% and 29.93%
same,COX-2 inhibition,"COX-2; 6.25 μM, single replicates, listed as T17, 6.25 µM",36.73% and 36.77% and 59.48%
same,inhibition at 12.5 µM,"COX-2; 12.5 μM, single replicates",65.1%
same,COX-2 inhibition,"COX-2; 12.5 μM, single replicates, listed as T17, 12.5 µM",69.47% and 74.84%
same,inhibition at 25 µM,"COX-2; 25 μM, single replicates",74.8%
same,COX-2 inhibition,"COX-2; 25 μM, single replicates, listed as T17, 25 µM",75.14% and 79.85%
same,inhibition at 50 µM,"COX-2; 50 μM, single replicates",78.4%
same,COX-2 inhibition,"COX-2; 50 μM, single replicates, listed as T17, 50 µM",79.38% and 83.25%
same,inhibition at 100 µM,"COX-2; 100 μM, single replicates",84.8%
same,COX-2 inhibition,"COX-2; 100 μM, single replicates, listed as T17, 100 µM",81.46% and 83.62%
same,inhibition at 200 µM,"COX-2; 200 μM, single replicates",90.6%
same,COX-2 inhibition,"COX-2; 200 μM, single replicates, listed as T17, 200 µM",89.90% and 90.15%
same,IC50,"COX-2; mean ± SD, n = 3, nd, not detected, read-out: COX-2 IC50",7.9 ± 2.4 µM
same,IC50,"COX-2; supplement sheet COX, read-out: COX-2 IC50, single replicate",10 µM and 8.56 µM and 5.24 µM
same,FRAP EC1,[3],506.6 ± 78.3 µM
